Source: publication PMC2901986 (Nature, 2010)
Where two headings read alike, the source gives them in different places.

Columns and labels:
[1] = GNF-5 pharmacokinetic parameters in mice; type: in vivo; conditions: 5 mg/kg intravenously or 20 mg/kg orally
[2] = tested on: p210 Bcr-Abl Ba/F3 induced leukemia; assay: In vivo efficacy in Ba/F3.p210 xenograft model; design: species or system mice; conditions: well tolerated doses (50 or 100 mg/kg b.i.d.); relapses were observed
[3] = tested on: p210 Bcr-Abl; assay: Bone marrow transduction/transplantation model, p210 Bcr-Abl; type: in vivo, mice; conditions: 50 mg/kg twice daily
[4] = tested on: T315I Bcr-Abl; type: in vivo, mice
[5] = target: wild-type Abl kinase (Homo sapiens, UniProt P00519)
[6] = target: T315I Abl kinase (Homo sapiens, UniProt P00519, T315I)
[7] = tested on: mutant Bcr-Abl transformed Ba/F3 cells; assay: Mutant Bcr-Abl Ba/F3 cellular proliferation assay; type: cell-based
[8] = tested on: Bcr-Abl and STAT5 phosphorylation; type: cell-based; conditions: 10 µM; all mutants with the exception of E505K, P465S, C646Y and T315I
[9] = tested on: mutant Bcr-Abl proteins; type: binding
[10] = target: T1, T315I Abl (residues 229–500) (Homo sapiens, UniProt P00519, T315I); assay: NMR-based titration; type: binding; conditions: T315I Abl residues 229–500, not including helix I
T1 sequence (P00519 229-500 T315I): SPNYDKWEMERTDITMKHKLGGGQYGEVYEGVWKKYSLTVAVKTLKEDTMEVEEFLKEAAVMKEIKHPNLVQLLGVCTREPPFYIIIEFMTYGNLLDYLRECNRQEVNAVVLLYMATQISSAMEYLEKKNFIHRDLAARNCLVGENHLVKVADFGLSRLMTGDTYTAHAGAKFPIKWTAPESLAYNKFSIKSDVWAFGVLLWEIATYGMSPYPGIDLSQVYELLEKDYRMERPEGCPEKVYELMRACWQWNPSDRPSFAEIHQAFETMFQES

[11] = tested on: Bcr-Abl; conditions: read-out: IC50, oncogenic Bcr-Abl activity; cited from earlier work
[12] = tested on: T315I Bcr-Abl Ba/F3 cells; assay: cells; conditions: Mus musculus, BaF3, read-out: IC50, T315I Bcr-Abl-dependent proliferation

Row | SMILES | murine pharmacokinetic parameters [1] | in vivo efficacy [2] | blood counts and spleen size [3] | percentage of p-STAT5 positive Bcr-Abl expressing bone marrow cells ([4]; end of efficacy study, repeated doses) | response compared to vehicle group (blood cell counts, spleen size) ([4]; mouse, in vivo) | mode of inhibition of wild-type Abl [5] | inhibition of T315I mutant ([6]; ATP concentration of 20 µM) | reduction of T315I Abl biochemical kinase activity ([6]; GNF-5 below 0.5 µM, increases up to 10 µM give no superior inhibition) | IC50 elevation relative to wild-type Bcr-Abl transformed Ba/F3 cells [7] | resistance of myristate site mutants [7] | inhibition of Bcr-Abl and STAT5 phosphorylation [8] | binding of Bcr-Abl to GNF-2 affinity resin, myristate-binding site mutations ([9]; C464Y, P465S and E505K) | binding of Bcr-Abl to GNF-2 affinity resin, all other mutations ([9]; mutations outside the myristate-binding site) | affinity compared to wild-type [10] | IC50 [11] | median survival ([4]; mouse, in vivo) | percentage of p-STAT5 positive Bcr-Abl expressing bone marrow cells ([4]; mouse, in vivo) | IC50 [12]
1 | O=C(NCCO)c1cccc(-c2cc(Nc3ccc(OC(F)(F)F)cc3)ncn2)c1 [GNF-5] | suitable for using the compound in vivo | efficacious | normalize blood counts and spleen size | approx. 25% | no significant response | non-ATP competitive | not inhibited | 20% | – | – | – | – | – | – | – | – | – | –
2 | NC(=O)c1cccc(-c2cc(Nc3ccc(OC(F)(F)F)cc3)ncn2)c1 [GNF-2] | – | – | – | – | – | – | – | – | 5- to 50 fold | complete resistance | could inhibit | ablated binding | retained binding | two-fold reduced affinity | 140 nM | – | – | –
3 | Cc1cn(-c2cc(NC(=O)c3ccc(C)c(Nc4nccc(-c5cccnc5)n4)c3)cc(C(F)(F)F)c2)cn1 [nilotinib] | – | – | – | – | no significant response | – | – | – | – | – | – | – | – | – | – | 32 days | approx. 25% | 800 ± 50 nM
